What all share (type): cell-based, human
For experiment [1], the system named is fibrocytes obtained from exacerbating COPD patients. Nature of the experiment: plasma-induced fibrocyte migration, modified Boyden chamber assay. Here is the method: (§1) Purification of nonadherent non-T (NANT) cells was performed. Briefly, peripheral blood mononuclear cells (PBMC) were separated from whole blood by Ficoll-Hypaque density gradient centrifugation. After the first centrifugation at 150 g for 15 min, the top plasma layer was harvested and kept at −80° C. for further analysis. Mononuclear cells at the interface were harvested, washed once with 1×PBS. Erythrocyte lysis was performed by adding 20 ml of hypotonic 0.2% NaCl solution during 30s, followed by adding 20 ml of 1.6% NaCl to end with an isotonic solution. Mononuclear cells were again washed with 1×PBS, resuspended in Dulbecco's modified Eagle medium (DMEM), 4.5 g/l glucose, L-glutamine, supplemented with 20% fetal bovine serum (FBS), penicillin/streptomycin and MEM non essential amino acid and incubated 1 h at 37° C. The non-adherent mononuclear cell fraction was taken and washed in cold 1×PBS 0.5% BSA, 2 mM EDTA. T-cells were further depleted with anti-CD3 monoclonal antibody (Miltenyi Biotech). At least 0.2×10^6 nonadherent non-T (NANT) cells were distributed in each FACS tube and fixed overnight with Cytofix/Cytoperm (eBioscience).
(§2) Fibrocyte migration was assessed using a modified Boyden chamber assay. The transwell inserts (pore size 8 μm) and the wells were coated for 1 h at room temperature with poly-lysine-ethylene glycol (PEG-PLL, Susos) to prevent cell adhesion. The inserts and the wells were rinsed with PBS. 0,3.10^6 nonadherent non-T (NANT) cells resuspended in 0.2 ml […] DMEM, 4.5 g/l glucose, L-glutamine, supplemented with ITS, penicillin/streptomycin and MEM non essential amino acid were added to the upper compartment of each well. When indicated, NANT cells were pretreated for 1 h at 37° by 25 μg/ml plerixafor (Sigma-Aldrich) or 10 μM SB 328437 (R&D Systems) before being added to the upper compartment. Recombinant human CXCL12 (25 ng/ml to 200 ng/ml; R&D Systems), recombinant human CCL11 (25 ng/ml to 200 ng/ml; R&D Systems) or plasma (50% dilution) extracted from blood coming from COPD V1 patient or control subject was added to the bottom compartment of each well. After about 12 h, the content of bottom compartment was removed to assess fibrocyte migration by flow cytometry using double labeling CD45-collagen I. To obtain absolute values of migratory cells, flow cytometric counts for each condition were obtained during a constant predetermined time period (1 min). The fraction of migratory fibrocytes was defined by the ratio between the number CD45+coll I+ cells counted in the bottom chamber divided by the number of CD45+coll I+ cells added in the upper compartment. These values were normalized to the fraction of migratory fibrocytes obtained in the basal condition (medium only).

Experiment [2] concerns fibrocytes obtained from normal subjects. Described as above. As to the method: as §1, §2
The test system of a further experiment is fibrocytes. Nature of the experiment: fibrocyte migration in response to recombinant chemokine (CXCL12, CCL11), modified Boyden chamber assay. As to the method:
as §1
Fibrocyte migration was assessed using a modified Boyden chamber assay. The transwell inserts (pore size 8 μm) and the wells were coated for 1 h at room temperature with poly-lysine-ethylene glycol (PEG-PLL, Susos) to prevent cell adhesion. The inserts and the wells were rinsed with PBS. 0,3.10^6 nonadherent non-T (NANT) cells resuspended in 0.2 ml […] DMEM, 4.5 g/l glucose, L-glutamine, supplemented with ITS, penicillin/streptomycin and MEM non essential amino acid were added to the upper compartment of each well. […] The fraction of migratory fibrocytes was defined by the ratio between the number CD45+coll I+ cells counted in the bottom chamber divided by the number of CD45+coll I+ cells added in the upper compartment. […]

With `c1cc(CN2CCCNCCNCCCNCC2)ccc1CN1CCCNCCNCCCNCC1` [Plerixafor], the “plasma-induced recruitment of fibrocytes” value in experiment [1] (plasma of exacerbating COPD patients (50% dilution), cells pretreated 1 h with 25 μg/ml plerixafor, about 12 h, FIG. 5A) is “significant reduction”. For the same molecule, the “plasma-induced migration of fibrocytes” value in experiment [2] (fibrocytes from normal (control) subjects, plasma of exacerbating COPD patients (50% dilution), cells pretreated 1 h with 25 μg/ml plerixafor, about 12 h, FIG. 5A) is recorded as “no significant reduction”. Also, the “fibrocyte migration in response to CXCL12 in presence of antagonist” value with fibrocytes (CXCL12 alpha-induced migration, cells pretreated 1 h with 25 μg/ml plerixafor, FIG. 5D) is reported as “completely abolished”.
Turning to “CXCL12 alpha: recombinant human CXCL12 (R&D Systems), chemokine ligand of CXCR4”, in the experiment on fibrocytes (100 ng/ml chemokine, FIG. 5C), the “migration of fibrocytes from exacerbating COPD patient compared to fibrocytes from control subjects” value is given as “significantly higher migration”. Further, the “migratory response of fibrocytes to increasing concentrations of chemokine” value with fibrocytes (recombinant human chemokine 25 ng/ml to 200 ng/ml in bottom compartment, about 12 h, FIG. 5C, Figure E3C) is “induced a significant fibrocytes migration in a dose-dependent manner”.
Turning to `COC(=O)[C@H](Cc1ccc([N+](=O)[O-])cc1)NC(=O)c1ccc2ccccc2c1` [SB 328437, (S)-methyl-2-naphthoylamino-3-(4-nitrophenyl) propionate], the “plasma-induced migration of fibrocytes” value in experiment [1] (plasma of exacerbating COPD patients, cells pretreated 1 h with 10 μM SB 328437, Figure E3A (FIG. 8A)) is listed as “not affected”; in experiment [2] (fibrocytes from control subjects, plasma of exacerbating COPD patients, cells pretreated 1 h with 10 μM SB 328437, Figure E3A (FIG. 8A)), “not affected”.
